Assay results reported in publication PMC9319837, “Microscale Thermophoresis and Molecular Modelling to Explore the Chelating Drug Transportation in the Milk to Infant” (Molecules, 2022).

Biological target: T1, human Lf (lactoferrin) (Homo sapiens, UniProt P02788)
T1 construct: gene LTF; full-length, label-free
Test: label-free microscale thermophoresis (intrinsic fluorescence, […] nm)
Assay type: binding
Conditions: 0.1 M Tris pH 7.4; Lf 120 nM; CP20 7 nM to 250 μM; 10 min equilibration; iron saturation of Lf not stated

T1 sequence (P02788 20-710): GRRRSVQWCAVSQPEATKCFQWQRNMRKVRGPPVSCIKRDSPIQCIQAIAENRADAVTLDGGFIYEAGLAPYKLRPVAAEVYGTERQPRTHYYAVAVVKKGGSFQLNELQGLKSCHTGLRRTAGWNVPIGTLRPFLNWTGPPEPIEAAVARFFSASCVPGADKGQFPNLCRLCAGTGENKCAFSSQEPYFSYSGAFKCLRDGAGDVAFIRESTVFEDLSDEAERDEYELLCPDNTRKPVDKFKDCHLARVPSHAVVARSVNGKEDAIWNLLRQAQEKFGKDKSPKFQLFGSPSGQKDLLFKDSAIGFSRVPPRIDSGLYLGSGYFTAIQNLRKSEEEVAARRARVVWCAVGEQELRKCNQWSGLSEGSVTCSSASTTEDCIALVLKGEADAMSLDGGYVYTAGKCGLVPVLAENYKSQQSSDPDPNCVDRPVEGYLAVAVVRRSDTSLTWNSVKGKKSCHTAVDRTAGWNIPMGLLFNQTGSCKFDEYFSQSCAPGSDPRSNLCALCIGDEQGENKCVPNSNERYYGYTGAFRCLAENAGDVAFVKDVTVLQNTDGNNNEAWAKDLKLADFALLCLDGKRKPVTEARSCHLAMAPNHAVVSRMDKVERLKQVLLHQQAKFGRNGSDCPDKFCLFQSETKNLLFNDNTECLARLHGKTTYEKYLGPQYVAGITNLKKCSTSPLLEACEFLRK

In the case of `Cc1c(O)c(=O)ccn1C` [deferiprone, 1,2-dimethyl-3-hydroxypyrid-4-one], the Kd is reported as 8.9 × 10^−6 ± 1.6 Molar.
